According to PMC11982498 (Redox Biology, 2025):
Values joined by “and” are separate entries in the source; they are usually repeats but may differ in a detail not shown here. Equal values may be shown once.

How the values were obtained:
[1] = test system: BCL-2 promoter i-motif; assay: TO displacement assay, BCL-2 i-motif; assay type: binding; settings: BPES buffer pH 5.5
Procedure: Figure S4. TO displacement and UV titration experiments were performed to examine the effects of B14 and A22 on BCL-2 promoter i-motif. (A-B) TO displacement was performed on BCL-2 promoter i-motif annealed in 1XBPES buffer at pH 5.5 with increasing amount of B14 and A22. (C) The above relative TO displacement ratio were statistically analyzed.
DNA oligonucleotides were diluted to 1 μM with 1 × PBES buffer at pH 5.5, annealed at 95 °C for 10 min, cooled to room temperature, and stored at 4 °C for future use. TO dye (1 μM) was added to the DNA solution followed with incubation for 1 h. The spectra of 100 μL mixture with addition of different equivalent compounds at 25 °C were recorded based on fluorescence emission (λex = 480 nm).
TO displacement ratio (%) = (F0 − FC) / (F0 − FB) * 100.
F0 and FC were the fluorescence intensity of TO at 536 nm with DNA before and after adding compounds, respectively. FB was the fluorescence intensity of TO at 536 nm with buffer only.

[2] = test system: BCL-2(G4) (DNA, G4) AGGGGCGGGCGCGGGAGGAAGGGGGCGGGAGCGGGGCTG; assay: CD melting, 260 nm; settings: K+ 100 mM; Figure S6 legend says Na+ 20 mM; Tris-HCl, pH 7.4; 20 μM B14, 2 μM DNA
[3] = test system: F-BCL-2(G4) (DNA, G4) AGGGGCGGGCGCGGGAGGAAGGGGGCGGGAGCGGGGCTG; assay: MST; settings: K+ 100 mM; 50 mM Tris-HCl, pH 7.4; highest B14 concentration 50 μM
[4] = test system: bio-(G2C4)6 (DNA, i motif) GGCCCCGGCCCCGGCCCCGGCCCCGGCCCCGGCCCC; assay: SPR; settings: K+ 100 mM; 20 mM MES, pH 5.5, 25 °C
[5] = test system: APP/PS1 transgenic mice; assay: Nissl and H&E staining of hippocampus; assay type: in vivo; settings: vs model group
From the text: Five months old male APP/PS1 mice, weighing 25–33 g, were purchased from Guangdong Medical Laboratory Animal Center and housed in the Laboratory Animal Center of Sun Yat-sen University (Guangzhou, China) for experimentation. All procedures were approved by the Animal Care and Use Committee of Sun Yat-sen University and complied with legal requirements and national guidelines for the care and maintenance of laboratory animals (Approval No. SYSU-IACUC-2024-002032). The mice were housed in a specific pathogen-free environment with a controlled temperature of 22 ± 1 °C and a 12-h dark/light cycle. The mice were fed with a standard diet, and 30 mice were randomly divided into 6 groups (N = 5). Compound B14 was dissolved in saline and administered at doses of 10, 20, or 40 mg/kg. APP/PS1 male mice were grown until 6 months of age, and then injected intraperitoneally with compound B14 every other day for 60 days. Behavioral experiments were then conducted, and tissue specimens were collected for biochemical analysis.
The mice were sacrificed, with their brains and organs isolated and embedded in paraffin. The brains and organs were then sectioned into 6 μm thin slices. These slices were subjected to H&E or Nissl staining (Servicebio, Guangzhou, China). The stained sections were subsequently imaged and analyzed by using microscopy.

[6] = test system: BCL-2 i-motif; assay: ESI-MS with BCL-2 i-motif; assay type: binding; settings: pH 6.5
Procedure: The oligomer for BCL-2 promoter […] at concentration of 5 μM was annealed in 1 × BPES buffer with or without 20 μM B14 at 95 °C for 5 min, followed by cooling to room temperature. Mass spectrometry signals were collected by using ESI-MS (Thermo, LCQ DECA Plus XP) and analyzed by using pro-mass.

[7] = test system: BAX gene transcription in SH-SY5Y cells; assay: Real-time RT-PCR in 25 μM Aβ1-42 cell model, BAX; assay type: cell-based, human
Procedure: SH-SY5Y cells were treated with or without B14, and total RNA was subsequently isolated and purified. Reverse transcription was performed using a cDNA synthesis kit. The relative transcription levels of the genes were evaluated through quantitative real-time PCR using the SYBR Green-based method, as described in the Supplementary Date. Details regarding the primer sequences and the raw data can be found in Table S7 and Table S8.
^a -∆∆Ct = -[(Ct value of genes in treated sample - Ct value of genes in control) - (Ct value of β-actin in treated sample - Ct value of β-actin in control)]. ^b F: The relative expression fold.
Experiment 2: The Ct values of BCL-2 and Bax in 25 μM Aβ1-42 model with different concentration of B14.
Total RNA was extracted from cells and mice liver tissue using RNAiso Plus (Takara, 9109, Japan). Following sample homogenization, chloroform was added, and the solution was allowed to have phase separation into an upper aqueous layer (containing RNA), an interphase, and a lower organic layer (containing DNA and proteins). RNA was precipitated from the aqueous phase using isopropanol, while DNA was precipitated from the aqueous-organic interphase using ethanol. Complementary DNA (cDNA) was synthesized using the One-Step RT-PCR Kit (Takara, Cat#639503, Japan).
Quantitative real-time polymerase chain reaction (qRT-PCR) was performed using the 2× RealStar SYBR Mixture (GenStar, Cat# A301-10, Guangzhou, China) on a LightCycler 480 II real-time PCR system (Roche, USA). Data were analyzed using the 2^−ΔΔCt method. Actin served as the internal control, and relative mRNA levels were normalized accordingly.

[8] = molecular target: T1, Aβ1-42 (Homo sapiens, UniProt P05067); assay: Circular dichroism of Aβ1-42 secondary structure; assay type: biochemical; settings: 20 μM compound, 72 h
T1 construct: Aβ1-42 was purchased from Gill Biochemicals Ltd (Shanghai, China); purchased Gill Biochemicals Ltd (Shanghai, China)
Procedure: (§1) The circular dichroism (CD) experiment was performed to investigate the effect of B14 (20 μM) or Curcumin (20 μM) on the change of Aβ1-42 secondary structure. The Aβ1-42 solutions (100 μM) were co-incubated with B14 (20 μM) or Curcumin (20 μM) at 37 °C for 72h. Ellipticity changes of Aβ1-42 were monitored employing a Chirascan CD spectropolarimeter (Chirascan, England).
as §1, with “Circular dichroism” for “The circular dichroism”, “μM) and” for “μM) or”, “spectropolarimeter (Applied Photophysics, UK).” for “spectropolarimeter (Chirascan, England).”

T1 sequence (P05067 672-713 limits assumed): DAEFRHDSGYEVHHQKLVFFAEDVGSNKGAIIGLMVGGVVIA

## O=C(CCN1CCOCC1)Nc1ccc2c(c1)c(=O)c1cc(NC(=O)CCN3CCOCC3)ccc1n2-c1ccc2occc2c1 [Compound B14]
[1]
  Relative TO displacement ratio: 65% and 65.7%
[2]
  ΔTm: -3.13 °C
[3]
  KD: 59.75 µM
[4]
  KD: 33.30 µM
[5]
  hippocampal neuron damage (HE staining): could reverse the damage of hippocampal neurons in mice
  number of Nissl bodies in CA1-CA4 and DG regions: restored
[6]
  adduct peak in ESI-MS: could bind tightly to BCL-2 i-motif
[7]; 25 μM Aβ1-42 + 6.25 μM B14
  -∆∆Ct, BAX: -1.71
  F = 2^-∆∆Ct (relative expression fold), BAX: 3.23
[7]; 25 μM Aβ1-42 + 12.5 μM B14
  -∆∆Ct, BAX: -1.09
  F = 2^-∆∆Ct (relative expression fold), BAX: 2.13
[7]; 25 μM Aβ1-42 + 25 μM B14
  -∆∆Ct, BAX: -0.80
  F = 2^-∆∆Ct (relative expression fold), BAX: 1.71
[8]
  CD signal intensity of Aβ1-42: much decreased
